“And” between values parts separate entries of the source, which are not always exact repeats. Equal entries are not always repeated.
Tested on: IL-1β induced E-selectin expression
Experiment: Inhibition of IL-1β induced E-selectin (SELE) mRNA expression in primary HUVEC, real time PCR
Format: cell-based, human
Conditions: for Max. Inhibition (%) / EC [μM] (effective concentration): HUVEC pre-incubated 30 min with compound, then 5 ng/mL IL-1β for 90 min; for Max. Inhibition (%): SELE mRNA by qPCR, at the effective concentration; for EC [μM] (effective concentration): SELE mRNA normalized to GAPDH, at least three independent experiments; for Inhibitory activity against E-selectin expression (in words): IL-1β stimulated HUVEC, 5 ng/mL IL-1β for 90 min
Method: J. Seigner et al. (Frontiers in Pharmacology 10.3389/fphar.2019.00289) reported recently that interleukin-1β (IL-1β) induced E-selectin mRNA levels were inhibited by a comfrey extract by approximately 70% at the starting concentration of 20 μg/ml. E-selectin is a NF-κB-dependent target gene and IL-1β is a well-described pro-inflammatory mediator that exerts an important role in the regulation of immune and inflammatory responses, in particular those involving sterile insults such as trauma and blunt injuries. […] Thus, the anti-inflammatory activity of individual compounds 1, 5, 12 and 14, was tested using IL-1-stimulated HUVEC cells and analyzed by real time PCR determining the fold change in mRNA expression of E-selectin. These were compared to the inhibitory activity of the new arylnaphthalene lignan comfreyn A (15) and globoidnan B (8), malaxinic acid (9) and caffeic acid ethyl ester (16), the latter three identified first time in S. officinale as disclosed herein.
Therefore, primary HUVEC cells were isolated from umbilical cords as described by M. Hoeth et al., Guidance Molecules in Human Endothelial Cells, Plos One 7, 2012 and maintained in M199 medium (Lonza) supplemented with 20% FCS (Sigma), 2 mM L-glutamine (Sigma), penicillin (100 units/mL), streptomycin ([…]), 5 units/mL heparin, and […] ECGS (Promocell), and were used up to passage 5. HUVEC cell were pre-incubated with various concentration of purified compounds (1, 5, 8, 9, 12, 14, 15 and 16) for 30 minutes following stimulation with 5 ng/mL IL-1β (R&D Systems) for 90 min. Cells were then analyzed for the change in mRNA expression of E-Selectin (SELE). Therefore, total RNA was isolated using the PeqGold Total RNA Isolation Kit (VWR International) according to the manufacturer's instructions. 1 μg RNA was reverse transcribed using random hexamers (Fermentas) and murine leukemia virus reverse transcriptase (Thermo Scientific Fisher). Primers were designed using the software “Primer3”. Following primer sequences were used for qPCR: glyceraldehyde 3-phosphate dehydrogenase (GAPDH) forward, 5′-AGAAGGCTGGGGCTCATTT-3′ and reverse, 5′-[…]-3′; E-Selectin (SELE) forward, 5′-CCTGTGAAGCTCCCACTGA-3 and reverse 5′-[…]-3′. Real-time PCR was done with the SsoAdvanced Universal SYBR Green Supermix (BioRad) using the StepOnePlus instrument (Applied Biosystems), and relative mRNA expression normalized to GAPDH. Fold changes in mRNA expression were calculated according to the 2-ΔΔCT method.

CCOC(=O)c1cc2cc(O)c(O)cc2c2c1c(=O)oc1cc(O)c(O)cc12 [Compound 15, comfreyn A]
Max. Inhibition (%): 50% and 52%
EC [μM] (effective concentration): 50 µM
Inhibitory activity against E-selectin expression (in words) (listed as Comfreyn A): inhibition of E-selectin expression
Inhibitory activity against E-selectin expression (in words) (listed as comfreyn A): inhibit the expression of E-selecting mRNA

CC(C)=CCc1cc(C(=O)O)ccc1O[C@@H]1O[C@H](CO)[C@@H](O)C(O)[C@H]1O (stereo partly shown) [Compound 9, malaxinic acid]
EC [μM] (effective concentration): 108 µM

O=C(/C=C/c1ccc(O)c(O)c1)O[C@H](Cc1ccc(O)c(O)c1)C(=O)O [Compound 12, rosmarinic acid]
Inhibitory activity against E-selectin expression (in words): do not show any inhibitor activity

O=Cc1ccc(O)c(O)c1 [Compound 5, protocatechuic aldehyde]
EC [μM] (effective concentration): 120 µM

CCOC(=O)/C=C/c1ccc(O)c(O)c1 [Compound 16, caffeic acid ethyl ester]
Max. Inhibition (%): 70%
EC [μM] (effective concentration): 64 µM

O=C(O[C@H](Cc1ccc(O)c(O)c1)C(=O)O)C1=Cc2cc(O)c(O)cc2[C@H](c2ccc(O)c(O)c2)[C@H]1C(=O)O [Compound 8, globoidnan B]
Inhibitory activity against E-selectin expression (in words): did not show any inhibitory activity

O=C(O[C@H](Cc1ccc(O)c(O)c1)C(=O)O)c1cc(-c2ccc(O)c(O)c2)c2cc(O)c(O)cc2c1 [Compound 14, globoidnan A]
Max. Inhibition (%): 35%
EC [μM] (effective concentration): 40 µM

NC(=O)NC1NC(=O)NC1=O (stereo not shown) [Compound 1, allantoin]
Inhibitory activity against E-selectin expression (in words): do not show any inhibitor activity
